Entries after “also recorded” stand apart in the source; their conditions may differ.
How the values were obtained:
[1] = ADP assay (ADP hydrolysis/consumption by proteins); assay type: biochemical; conditions: ADP assay kit, protein 0.13 mg/ml, 20 min incubation, ADP 0, 5, 15, 30 μM
Description: To measure the level of hydrolysis of ADP by the schistosome ILP, ADP assay kits (Sigma-Aldrich) were used to measure ADP levels of recombinant schistosome ILPs after their interaction with different concentrations of ADP. ADP levels in various proteins (0.13 mg/ml) were determined following their incubation for 20 min with different concentrations of ADP (0, 5, 15, 30 μM).

[2] = system: Erk (p44/42 MAPK) in adult S. japonicum; assay: Erk phosphorylation in adult worms, Western blot with anti-phospho-P44/42 MAPK (Erk1/2) antibody; assay type: cell-based
Description: It had been shown previously that an anti-phospho-P44/42 MAPK (Erk1/2) antibody could recognize exclusively activated (phosphorylated) forms of this kinase in S. mansoni because of the high sequence homology in key phosphorylation sites between kinases from schistosomes and humans, and because phosphorylation at these sites is vital for enzyme activation. […] Worms from the different groups were then collected for SWAP extraction which was undertaken in the presence of HALT protease/phosphatase inhibitor cocktail (ThermoFisher, Waltham, USA). SDS-PAGE/Western blotting was carried out as described above using the Odyssey system. […] An anti-actin antibody (Sigma-Aldrich) (1:150) was used to assess protein-loading differences. OdysseyClassic 3.0 software was used for Western blot quantification.

[3] = system: S. japonicum IRs (SjIR1 and SjIR2); design: method as in PMID 25961574; conditions: ref [18]; cited from earlier work
adult S. japonicum = conditions: in vitro, ref [15], cited from earlier work
Description: The life-cycle of schistosomes involves snail intermediate hosts and definitive mammalian hosts including humans, in whom schistosomes can survive for decades. Remarkably, the highly sophisticated relationship between schistosomes and their mammalian hosts seems to involve exploitation by these parasites of host endocrine and immune signals. By binding many ligands including hormones, growth factors, cytokines, receptor tyrosine kinases (RTKs), which are high-affinity cell surface receptors, can be activated to trigger different signalling cellular cascades for the regulation ...

[4] = molecular target: recombinant Schistosoma japonicum insulin-like peptide, C-terminal fragment T31-S130 (S. japonicum); assay: BLI; Octet RED, 25 °C; biotinylated rSjILP (150 ng/μl) immobilised on streptavidin biosensors, exposed to rSjLD1 or rSjLD2 (7, 14, 28, 56, 112 ng/μl); kinetic buffer (1 mM phosphate, 15 mM NaCl, 0.1 mg/ml BSA, 0.002% Tween-20); association 1000 s, dissociation 1000 s; BSA as reference
[5] = molecular target: T1, recombinant ligand domain of S. japonicum insulin receptor 1 (S. japonicum, biotin (NHS-PEO4-biotin kit) where it was immobilised on streptavidin biosensors); assay: BLI
T1 chain: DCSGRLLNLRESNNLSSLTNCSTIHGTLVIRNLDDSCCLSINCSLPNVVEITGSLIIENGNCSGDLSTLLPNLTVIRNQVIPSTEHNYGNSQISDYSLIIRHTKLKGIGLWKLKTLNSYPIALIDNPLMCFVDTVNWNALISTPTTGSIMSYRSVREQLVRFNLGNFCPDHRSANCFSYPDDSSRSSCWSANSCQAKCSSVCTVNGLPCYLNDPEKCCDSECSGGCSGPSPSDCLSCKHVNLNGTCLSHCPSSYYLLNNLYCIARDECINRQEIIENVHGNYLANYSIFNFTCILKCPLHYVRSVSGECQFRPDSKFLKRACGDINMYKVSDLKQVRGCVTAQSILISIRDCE

human insulin: human insulin (Sigma-Aldrich)
ADP hydrolysis, result in words [1]: no ADP binding ability was observed
reduction of Erk band intensity compared with worms co-stimulated with rSjILP and insulin ([2]; human insulin only (1 μM), 30 min, t (6) = 31.39, P = 0.001, experiment performed twice): 58%
Erk phosphorylation (44 kDa band), result in words ([2]; rSjILP 1 μM and/or human insulin 1 μM, 30 min in DMEM, anti-phospho-P44/42 MAPK antibody (1:1,000), experiment performed twice): The Erk band was also detectable; also recorded: more phosphorylated Erk was observed in worms stimulated with human insulin compared with worms cultured without insulin
reduction of Erk band intensity in worms without human insulin and rSjILP, compared with insulin only ([2]; value is the intensity of untreated worms relative to human insulin only (1 μM), 30 min, t (6) = 4.353, P = 0.049): 30%
binding of human insulin to SjIR1 and SjIR2, in words [3]: bind strongly with both SjIR1 and SjIR2
increase of glucose content of adult female S. japonicum (adult S. japonicum; female worms): 2.9 fold
increase of glucose content of adult male S. japonicum (adult S. japonicum; male worms): 1.7 fold

recombinant ligand domain of S. japonicum insulin receptor 1 (domain or fragment)
Kd [4]: 0.226 nM

recombinant ligand domain of S. japonicum insulin receptor 2 (domain or fragment)
Kd [4]: 0.16 nM

B1: recombinant Schistosoma japonicum insulin-like peptide, C-terminal fragment T31-S130 (domain or fragment)
chain: THSLPELQTDYTPINDYPIRMCGNEFLRHLKRVCAIRGIYTPLVRFKRSLEQYYDRILQRGKRFDDLCTLYTIYEPDQVVTKCCCIGCTRSYLEQFCNPS
modifications: biotin (NHS-PEO4-biotin kit) where it was immobilised on streptavidin biosensors
Kd [5]: 0.255 nM

Source: publication PMC5391603, “Identification and functional characterisation of a Schistosoma japonicum insulin-like peptide” (Parasites & Vectors, 2017)
